We go through one substance from patent publication EP1435231B1, “Non-pegylated long-circulating liposomes” (Bharat Serums & Vaccines Ltd., priority 2002, dated 2004).

A short description of series [1]: Pharmacokinetic study of doxorubicin formulations in mice (plasma, HPLC). The arrangement: species or system Swiss albino mice. The following applies: mouse, in vivo, 10 mg/kg. As to the method:
Blood samples after collection were centrifuged at 4000 rpm for 20 min and the plasma was separated and frozen at -20°C until analysed. The frozen plasma was thawed and used for analysis.
1ml of acetonitrile was added to 100 µL of plasma, vortexed for 10 min, centrifuged at 3250 rpm for 10 min. The supernatant was withdrawn and 0.5ml of saturated ZnSO4 solution was added to it. The resulting solution was vortexed for 5 min and then centrifuged for 10 min at 3250 rpm. The upper organic layer was then withdrawn and dried under oxygen free nitrogen gas at 60°C. The residue obtained was then reconstituted with 200µL of Solvent A containing ZnSO4. 100 µL of this solution was then injected in the HPLC column.
Student's t-test was used for comparison between the three formulations.

The subject of the next series is Dogs. The series can be described thus: Subacute toxicity in dogs. The note with it: dog, in vivo. From the text:
• clinical signs of toxicity, • body weight, • haemodynamic parameters, • haematology and • biochemical parameters TABLE 7

Series [2] deals with drug resistant (Pgp+) DLD-1 human colon tumour. The series can be described thus: Efficacy in nude athymic mice implanted with multidrug resistant, Pgp positive DLD-1 tumour xenografts. The note with it: mouse, in vivo. As to the method:
Animals, nude athymic mice, 4 mice/group (10 in Control group) implanted subcutaneously with human DLD-1 colon tumour via trocar implant.
All agents were administered to nude athymic mice i.v. via tail vein on day 5 and 12 after s.c. tumour implant with the multidrug resistant, Pgp positive, human colon tumour xenograft.

On to Adriamycin^®, for which, in series [1], the Cl is 200.96 mL/h and the Kel was determined as 4.852. Moreover, in the series on Dogs, the “Liver Function Test: aspartate aminotranferase, alanine aminotranferase and total bilirubin levels” value is given as “Increase”; the “creatinine phosphokinase and lactate dehydrogenase levels” value is recorded as “Increase”. Besides, in the series on Dogs (1 mg/kg), the Body weight entry is reported as “decrease in the bodyweight”, the “Haemodynamic Parameters: Heart rate” value is on record as “Increases by average + 29.17%” and the “Haemodynamic Parameters: Respiratory rate” value is listed as “Decreases by average -42.12%”. Further, the “MTD relative to that of the liposomal formulations” value in series [2] was “about half”.
